Experimental data reported in ChEMBL document CHEMBL4145491, “Bysspectin A, an unusual octaketide dimer and the precursor derivatives from the endophytic fungus Byssochlamys spectabilis IMM0002 and their biological activities” (Eur J Med Chem, 2018).
Converted amounts (≈) assume the structure as drawn. The source made the active and inactive calls. No cut-off for these calls is given here.

Experiments:
Candida albicans = test: Anti-fungal activity against Candida albicans at 30 ug/disk; assay type: functional
Staphylococcus aureus [1] = test: Antibacterial activity against Staphylococcus aureus ATCC 25923 at 30 ug/disk; assay type: functional
Escherichia coli [2] = test: Antibacterial activity against Escherichia coli ATCC 25922 at 30 ug/disk; assay type: functional
[3] = molecular target: T1, Tyrosine-protein phosphatase non-receptor type 1 (Homo sapiens) (UniProt P18031); test: Inhibition of recombinant human GST-tagged PTP1B at 10 uM using p-NPP as substrate after 10 mins by spectrophotometric method
T1 sequence (whole entry): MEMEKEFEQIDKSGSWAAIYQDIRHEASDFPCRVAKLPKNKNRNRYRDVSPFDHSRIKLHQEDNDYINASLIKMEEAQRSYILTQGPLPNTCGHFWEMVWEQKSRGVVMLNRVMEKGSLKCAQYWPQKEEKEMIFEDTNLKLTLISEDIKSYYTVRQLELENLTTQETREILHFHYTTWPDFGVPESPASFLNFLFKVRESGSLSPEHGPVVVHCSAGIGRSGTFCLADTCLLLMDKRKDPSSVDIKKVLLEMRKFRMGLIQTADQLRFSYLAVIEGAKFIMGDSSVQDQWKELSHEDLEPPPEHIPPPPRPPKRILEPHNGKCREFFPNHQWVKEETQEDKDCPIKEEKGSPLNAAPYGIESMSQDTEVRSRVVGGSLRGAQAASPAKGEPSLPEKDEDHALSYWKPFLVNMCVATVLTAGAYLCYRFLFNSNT

HepG2 = test: Protection against acetaminophen-induced cell injury in human HepG2 cells at 10 uM after 24 hrs by MTT assay; assay type: functional, cell-based
HCT-8 = test: Cytotoxicity against human HCT8 cells after 24 hrs by MTT assay; assay type: functional, cell-based
Bel-7402 = test: Cytotoxicity against human Bel7402 cells after 24 hrs by MTT assay; assay type: functional, cell-based
A2780 = test: Cytotoxicity against human A2780 cells after 24 hrs by MTT assay; assay type: functional, cell-based
BGC-823 = test: Cytotoxicity against human BGC823 cells after 24 hrs by MTT assay; assay type: functional, cell-based
Escherichia coli [4] = test: Antibacterial activity against Escherichia coli ATCC 25922 after 24 hrs by broth microdilution method; assay type: functional; settings: ATCC 25922, 24 h
Peritoneal macrophage = test: Anti-inflammatory activity in C57BL6J mouse peritoneal macrophages assessed as inhibition of LPS-induced TNF-alpha secretion at 10 uM after 24 hrs; assay type: functional, cell-based
Staphylococcus aureus [5] = test: Antibacterial activity against Staphylococcus aureus ATCC 25923 after 24 hrs by broth microdilution method; assay type: functional; settings: ATCC 25923, 24 h
A549 = test: Cytotoxicity against human A549 cells after 24 hrs by MTT assay; assay type: functional, cell-based
[6] = tested on: Staphylococcus epidermidis; test: Antibacterial activity against Staphylococcus epidermidis ATCC 12228 after 24 hrs by broth microdilution method; assay type: functional; settings: ATCC 12228, 24 h
[7] = tested on: Mycolicibacterium smegmatis; test: Antibacterial activity against Mycobacterium smegmatis MC2 155 ATCC […] after 24 hrs by broth microdilution method; assay type: functional
Cocaine esterase [8] = molecular target: T2, Cocaine esterase (Homo sapiens, UniProt O00748); test: Inhibition of CE2 in human liver microsomes using fluorescein diacetate as substrate preincubated for 10 mins followed by substrate addition measured after 20 mins by […] assay
T2 sequence (O00748 whole entry): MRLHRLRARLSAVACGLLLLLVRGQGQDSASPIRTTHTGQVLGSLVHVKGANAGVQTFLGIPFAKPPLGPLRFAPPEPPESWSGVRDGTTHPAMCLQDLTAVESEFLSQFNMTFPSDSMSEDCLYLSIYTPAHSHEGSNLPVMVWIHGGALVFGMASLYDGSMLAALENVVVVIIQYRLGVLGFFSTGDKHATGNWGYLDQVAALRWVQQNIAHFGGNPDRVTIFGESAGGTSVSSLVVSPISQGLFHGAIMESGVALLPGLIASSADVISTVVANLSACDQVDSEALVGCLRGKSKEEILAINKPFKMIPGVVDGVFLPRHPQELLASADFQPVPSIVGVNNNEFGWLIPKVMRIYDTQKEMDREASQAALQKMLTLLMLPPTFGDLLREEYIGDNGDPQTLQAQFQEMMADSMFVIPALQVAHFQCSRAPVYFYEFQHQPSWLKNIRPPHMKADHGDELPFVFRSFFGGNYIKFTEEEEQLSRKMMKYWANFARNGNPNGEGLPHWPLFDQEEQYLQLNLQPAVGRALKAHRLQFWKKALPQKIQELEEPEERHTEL

Liver carboxylesterase 1 = molecular target: T3, Liver carboxylesterase 1 (Homo sapiens, UniProt P23141); test: Inhibition of CE1 in human liver microsomes using D-Luciferin methyl ester as substrate preincubated for 10 mins followed by substrate addition measured after 10 mins by luminescence assay
T3 sequence (P23141 whole entry): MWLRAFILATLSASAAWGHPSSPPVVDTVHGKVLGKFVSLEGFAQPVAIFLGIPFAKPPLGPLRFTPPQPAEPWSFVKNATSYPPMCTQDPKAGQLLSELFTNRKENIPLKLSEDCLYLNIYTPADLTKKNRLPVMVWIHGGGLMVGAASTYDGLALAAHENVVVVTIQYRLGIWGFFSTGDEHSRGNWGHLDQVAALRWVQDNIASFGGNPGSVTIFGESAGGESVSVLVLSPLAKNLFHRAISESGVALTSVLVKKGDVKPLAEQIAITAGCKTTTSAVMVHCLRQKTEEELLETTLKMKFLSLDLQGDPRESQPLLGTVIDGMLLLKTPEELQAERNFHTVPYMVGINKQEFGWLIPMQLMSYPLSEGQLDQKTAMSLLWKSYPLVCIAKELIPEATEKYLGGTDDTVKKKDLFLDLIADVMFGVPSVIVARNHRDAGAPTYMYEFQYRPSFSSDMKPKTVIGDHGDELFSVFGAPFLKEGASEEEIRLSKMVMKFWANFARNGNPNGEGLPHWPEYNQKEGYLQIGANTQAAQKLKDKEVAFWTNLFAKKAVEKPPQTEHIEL

Cocaine esterase [9] = molecular target: T2, Cocaine esterase; test: Reversible inhibition of CE2 in human liver microsomes up to 120 uM using fluorescein diacetate as substrate preincubated for 10 mins followed by substrate addition measured after 20 mins by […] assay
Cocaine esterase [10] = molecular target: T2, Cocaine esterase; test: Competitive inhibition of CE2 in human liver microsomes using fluorescein diacetate as substrate preincubated for 10 mins followed by substrate addition measured after 20 mins by Lineweaver-Burk plot analysis
Homo sapiens = organism: Homo sapiens; test: Selectivity ratio of IC50 for inhibition of CE1 in human liver microsomes to IC50 for inhibition of CE2 in human liver microsomes
[11] = molecular target: T4, CE2 (carboxylesterase 2; cocaine esterase) (Homo sapiens, UniProt O00748); test: Potency index, ratio of loperamide IC50 to compound IC50 for inhibition of CE2 in human liver microsomes; settings: read-out: Ratio IC50
T4 sequence (O00748 whole entry): T2 sequence (O00748 whole entry)

## CC1(C)S[C@@H]2[C@H](NC(=O)[C@H](N)c3ccccc3)C(=O)N2[C@H]1C(=O)O [AMPICILLIN]
Candida albicans
  diameter of the inhibition zone (DIZ): inactive
Staphylococcus aureus [1]; read-out: DIZ
  zone of inhibition at 30 µg/disc: > 20 mm
Escherichia coli [2]; read-out: DIZ
  zone of inhibition at 30 µg/disc: 16 to 20 mm

## CCCCCCCCCc1cccc(O)c1C=O
[3]
  inhibition: inactive
HepG2
  Activity: inactive
HCT-8
  Activity: inactive
Bel-7402
  Activity: inactive
A2780
  Activity: inactive
BGC-823
  Activity: inactive
Escherichia coli [4]
  MIC: 32 µg/mL (≈ 129 µM)
Peritoneal macrophage
  inhibition: inactive
Staphylococcus aureus [5]
  MIC: 64 µg/mL (≈ 258 µM)
A549
  Activity: inactive

## C[C@@H]1[C@H](O)[C@@H](C)/C=C/C=C/C=C/C=C/C=C/C=C/C=C/[C@H](O[C@@H]2O[C@H](C)[C@@H](O)[C@H](N)[C@@H]2O)C[C@@H]2O[C@](O)(C[C@@H](O)C[C@@H](O)[C@H](O)CC[C@@H](O)C[C@@H](O)CC(=O)O[C@H]1C)C[C@H](O)[C@H]2C(=O)O [AMPHOTERICIN B]
Candida albicans; read-out: DIZ
  zone of inhibition at 30 µg/disc: > 20 mm
Staphylococcus aureus [1]
  diameter of the inhibition zone (DIZ): inactive
Escherichia coli [2]
  diameter of the inhibition zone (DIZ): inactive

## C[C@H]1COc2c(N3CCN(C)CC3)c(F)cc3c(=O)c(C(=O)O)cn1c23.C[C@H]1COc2c(N3CCN(C)CC3)c(F)cc3c(=O)c(C(=O)O)cn1c23.O [LEVOFLOXACIN]
Staphylococcus aureus [5]
  MIC: 0.12 µg/mL

## CCCCCCC/C=C1\OC(=O)c2c(O)cccc21
[3]
  inhibition: inactive
HepG2
  Activity: inactive
HCT-8
  Activity: inactive
Bel-7402
  Activity: inactive
A2780
  Activity: inactive
BGC-823
  Activity: inactive
[6]
  MIC: > 128 µg/mL
Escherichia coli [4]
  MIC: > 128 µg/mL
Peritoneal macrophage
  inhibition: inactive
[7]
  MIC: > 128 µg/mL
Staphylococcus aureus [5]
  MIC: > 128 µg/mL
A549
  Activity: inactive

## CCCCCCCCC(=O)c1cccc(O)c1-c1cc2c(C(=O)CCCCCCCC)cccc2o1
[3]
  inhibition: inactive
Cocaine esterase [8]
  IC50: 2.01 µM
Liver carboxylesterase 1
  IC50: > 100 µM
HepG2
  Activity: inactive
HCT-8
  Activity: inactive
Bel-7402
  Activity: inactive
A2780
  Activity: inactive
Cocaine esterase [9]
  inhibition (INH): Active
BGC-823
  Activity: inactive
[6]
  MIC: > 128 µg/mL
Cocaine esterase [10]
  Ki: 2.34 µM
Homo sapiens
  Ratio IC50: > 49.8
[11]
  selectivity ratio: 2
Escherichia coli [4]
  MIC: > 128 µg/mL
Peritoneal macrophage
  inhibition: inactive
[7]
  MIC: > 128 µg/mL
Staphylococcus aureus [5]
  MIC: > 128 µg/mL
A549
  Activity: inactive

## O=[N+]([O-])c1ccc(OP(=O)(O)Oc2ccc([N+](=O)[O-])cc2)cc1
Liver carboxylesterase 1
  IC50: 0.21 µM

## CCCCCCCC[C@@H]1OC(=O)c2c(O)cccc21 [PAECILOCIN A]
[3]
  inhibition: inactive
Cocaine esterase [8]
  IC50: 23.3 µM
Liver carboxylesterase 1
  IC50: > 100 µM
HepG2
  Activity: inactive
HCT-8
  Activity: inactive
Bel-7402
  Activity: inactive
A2780
  Activity: inactive
BGC-823
  Activity: inactive
Homo sapiens
  Ratio IC50: > 4.29
Peritoneal macrophage
  inhibition: inactive
A549
  Activity: inactive
